Consider one compound from publication PMC3501516, “Anti-Diabetic Efficacy and Impact on Amino Acid Metabolism of GRA1, a Novel Small-Molecule Glucagon Receptor Antagonist” (PLoS ONE, 2012).

One may read the IC50 as the concentration that gives 50% inhibition. Low values mean greater potency, high ones weaker potency.

In assay [1] the target is T1, PAC1R (pituitary adenylate cyclase-activating polypeptide receptor type 1) (Homo sapiens, UniProt P41586).
T1 construct: expressed in transfected cells
T1 sequence (P41586 21-468): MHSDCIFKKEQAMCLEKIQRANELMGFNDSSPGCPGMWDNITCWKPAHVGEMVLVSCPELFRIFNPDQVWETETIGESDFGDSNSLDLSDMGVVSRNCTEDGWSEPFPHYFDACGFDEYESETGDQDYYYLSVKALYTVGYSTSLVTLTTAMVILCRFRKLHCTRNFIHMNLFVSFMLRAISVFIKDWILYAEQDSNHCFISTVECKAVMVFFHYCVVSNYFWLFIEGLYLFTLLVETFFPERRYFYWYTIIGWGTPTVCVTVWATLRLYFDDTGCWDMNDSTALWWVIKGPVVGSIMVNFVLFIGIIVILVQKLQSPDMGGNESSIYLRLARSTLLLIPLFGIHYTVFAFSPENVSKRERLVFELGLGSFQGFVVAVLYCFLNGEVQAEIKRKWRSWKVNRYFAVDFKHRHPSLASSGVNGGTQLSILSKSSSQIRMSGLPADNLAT
Description: Inhibition of agonist-stimulated cAMP production in CHO cells expressing PAC1R. The assay is classed as cell-based. The note with it: PAC1-stimulated. The source says: Transfected Chinese hamster ovary (CHO) cell lines were acquired and maintained as previously described, [20]. These included separate cell lines stably expressing human GCGR (hGCGR), mouse GCGR, rhesus GGCR, glucose-dependent insulinotropic peptide receptor (GIPR), GLP-1 receptor (GLP-1R), pituitary adenylate cyclase-activating polypeptide receptor type 1 (PAC1R), and vasoactive adenylate cyclase-activating polypeptide receptor type 2 (VPAC2R). Inhibition of glucagon binding to hGCGR was assayed in cell membranes prepared from the line of CHO cells that expressed the hGCGR. Functional antagonism was assayed by measuring the production of cAMP in intact CHO cells stimulated by agonists specific for their cognate receptors (i.e., glucagon for GCGR-expressing cell lines, GIP for the GIPR-expressing line, etc.). Primary human hepatocytes were obtained from In Vitro Technologies (Baltimore, MD) and glucagon-stimulated glycogenolysis was studied in these as previously described.
For orientation: Cyclic AMP is a second messenger, typically raised through Gs and lowered through Gi signalling.

In assay [2] the target is T2, mouse GCGR (Mus musculus, UniProt Q61606).
T2 construct: expressed in transfected cells
T2 sequence (Q61606 27-485): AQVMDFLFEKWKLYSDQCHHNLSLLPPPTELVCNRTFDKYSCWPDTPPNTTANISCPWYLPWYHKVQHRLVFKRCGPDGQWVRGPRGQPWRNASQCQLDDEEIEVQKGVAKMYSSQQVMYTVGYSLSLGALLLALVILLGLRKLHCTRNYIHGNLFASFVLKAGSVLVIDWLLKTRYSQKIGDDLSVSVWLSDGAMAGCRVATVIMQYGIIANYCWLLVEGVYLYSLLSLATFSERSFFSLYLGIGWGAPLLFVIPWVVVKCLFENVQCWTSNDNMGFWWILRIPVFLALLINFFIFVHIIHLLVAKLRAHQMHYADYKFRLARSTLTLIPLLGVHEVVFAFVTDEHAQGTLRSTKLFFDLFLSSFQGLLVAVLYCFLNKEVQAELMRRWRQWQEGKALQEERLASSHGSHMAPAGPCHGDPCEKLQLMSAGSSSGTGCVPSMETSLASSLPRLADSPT
Description: Inhibition of glucagon-stimulated cAMP production in CHO cells expressing mouse GCGR. The assay is classed as cell-based.
Description: Transfected Chinese hamster ovary (CHO) cell lines were acquired and maintained as previously described [17], [20]. These included separate cell lines stably expressing human GCGR (hGCGR), mouse GCGR, rhesus GGCR, glucose-dependent insulinotropic peptide receptor (GIPR), GLP-1 receptor (GLP-1R), pituitary adenylate cyclase-activating polypeptide receptor type 1 (PAC1R), and vasoactive adenylate cyclase-activating polypeptide receptor type 2 (VPAC2R). […] Functional antagonism was assayed by measuring the production of cAMP in intact CHO cells stimulated by agonists specific for their cognate receptors (i.e., glucagon for GCGR-expressing cell lines, GIP for the GIPR-expressing line, etc.).

Regarding `COc1ccc2cc(-c3cc(-c4cc(C(F)(F)F)ccc4F)nn3[C@@H](C)c3ccc(C(=O)NCCC(=O)O)cc3)ccc2c1` [GRA1, N-[4-((1S)-1-{3-(2-fluoro-5-trifluoromethylphenyl)-5-[6-methoxynaphth-2-yl]-1H-pyrazol-1-yl}ethyl)benzoyl]-β-alanine], the results for the IC50 in assay [1] and in assay [2] were 7.85 µM and 0.178 µM, respectively.
